The values that follow come from ChEMBL document CHEMBL5725430, “Dihydro-benzo-oxazine and dihydro-pyrido-oxazine derivatives” (2017).

For assay [1], the target named is Phosphatidylinositol 4,5-bisphosphate 3-kinase catalytic subunit alpha isoform (Homo sapiens, UniProt P42336). The assay can be described thus: (§1) The final concentrations of ATP and phosphatidyl inositol in the assay are 5 μM and 6 μg/mL, respectively. The reaction is started by the addition of PI3 kinase, e.g. PI3 kinase 6.p110δ.The components of the assay are added per well as follows 10 μl test compound in 5% DMSO per well in columns 2-1. Total activity is determined by addition 10 μl of 5% vol/vol DMSO in the first 4 wells of column 1 and the last 4 wells of column 12. The background is determined by addition of 10 μM control compound to the last 4 wells of column 1 and the first 4 wells of column 12. 2 mL Assay mix are prepared per plate 1.912 mL of HEPES assay buffer 8.33 μl of 3 mM stock of ATP giving a final concentration of 5 μM per well 1 μl of [33P]ATP on the activity date giving 0.05 μCi per well 30 μl of 1 mg/mL PI stock giving a final concentration of 6 μg/mL per well 5 μl of 1 M stock MgCl2 giving a final concentration of 1 mM per well 20 μl of the assay mix are added per well. 2 mL Enzyme mix are prepared per plate (x* μl PI3 kinase p110(3 in 2 mL of kinase buffer). The Enzyme mix is kept on ice during addition to the assay plates. 20 μl ‘Enzyme mix’ are added/well to start the reaction. The plate is then incubated at room temperature for 90 minutes. The reaction is terminated by the addition of 50 μl WGA-SPA bead (wheat germ agglutinin-coated Scintillation Proximity Assay beads) suspension per well. The assay plate is sealed using TopSeal-S (heat seal for polystyrene microplates, PerkinElmer LAS [Deutschland] GmbH, Rodgau, Germany) and incubated at room temperature for at least 60 minutes. The assay plate is then centrifuged at 1500 rpm for 2 minutes using the Jouan bench top centrifuge (Jouan Inc., Nantes, France). The assay plate is counted using a Packard TopCount, each well being counted for 20 seconds. The volume of enzyme is dependent on the enzymatic activity of the batch in use.In a more preferred assay, the kinase reaction is performed in a final volume of 10 μl per well of a low volume non-binding CORNING, 384 well black plate (Cat. No. #3676). The final concentrations of ATP and phosphatidyl inositol (PI) in the assay are 1 μM and 10 μg/mL, respectively. The reaction is started by the addition of ATP.The components of the assay are added per well as follows:50 nl test compounds in 90% DMSO per well, in columns 1-20, 8 concentrations (⅓ and 1/3.33 serial dilution step) in single. Low control: 50 nl of 90% DMSO in half the wells of columns 23-24 (0.45% in final). High control: 50 nl of reference compound (e.g. compound of Example 7 in WO 2006/122806) in the other half of columns 23-24 (2.5 μM in final). Standard: 50 nl of reference compound as just mentioned diluted as the test compounds in columns 21-22. 20 mL buffer are prepared per assay 200 μl of 1M TRIS HCl pH7.5 (10 mM in final) 60 μl of 1M MgCl2 (3 mM in final) 500 μl of 2M NaCl (50 mM in final) 100 μl of 10% CHAPS (0.05% in final) 200 μl of 100 mM DTT (1 mM in final) 18.94 mL of nanopure water 10 mL PI are prepared per assay 200 μl of 1 mg/mL 1-alpha-Phosphatidylinositol (Liver Bovine, Avanti Polar Lipids Cat. No. 840042C MW=909.12) prepared in 3% OctylGlucoside (10 μg/mL in final) 9.8 mL of buffer 10 mL ATP are prepared per assay.
Chain of Phosphatidylinositol 4,5-bisphosphate 3-kinase catalytic subunit alpha isoform (P42336 whole entry, canonical isoform): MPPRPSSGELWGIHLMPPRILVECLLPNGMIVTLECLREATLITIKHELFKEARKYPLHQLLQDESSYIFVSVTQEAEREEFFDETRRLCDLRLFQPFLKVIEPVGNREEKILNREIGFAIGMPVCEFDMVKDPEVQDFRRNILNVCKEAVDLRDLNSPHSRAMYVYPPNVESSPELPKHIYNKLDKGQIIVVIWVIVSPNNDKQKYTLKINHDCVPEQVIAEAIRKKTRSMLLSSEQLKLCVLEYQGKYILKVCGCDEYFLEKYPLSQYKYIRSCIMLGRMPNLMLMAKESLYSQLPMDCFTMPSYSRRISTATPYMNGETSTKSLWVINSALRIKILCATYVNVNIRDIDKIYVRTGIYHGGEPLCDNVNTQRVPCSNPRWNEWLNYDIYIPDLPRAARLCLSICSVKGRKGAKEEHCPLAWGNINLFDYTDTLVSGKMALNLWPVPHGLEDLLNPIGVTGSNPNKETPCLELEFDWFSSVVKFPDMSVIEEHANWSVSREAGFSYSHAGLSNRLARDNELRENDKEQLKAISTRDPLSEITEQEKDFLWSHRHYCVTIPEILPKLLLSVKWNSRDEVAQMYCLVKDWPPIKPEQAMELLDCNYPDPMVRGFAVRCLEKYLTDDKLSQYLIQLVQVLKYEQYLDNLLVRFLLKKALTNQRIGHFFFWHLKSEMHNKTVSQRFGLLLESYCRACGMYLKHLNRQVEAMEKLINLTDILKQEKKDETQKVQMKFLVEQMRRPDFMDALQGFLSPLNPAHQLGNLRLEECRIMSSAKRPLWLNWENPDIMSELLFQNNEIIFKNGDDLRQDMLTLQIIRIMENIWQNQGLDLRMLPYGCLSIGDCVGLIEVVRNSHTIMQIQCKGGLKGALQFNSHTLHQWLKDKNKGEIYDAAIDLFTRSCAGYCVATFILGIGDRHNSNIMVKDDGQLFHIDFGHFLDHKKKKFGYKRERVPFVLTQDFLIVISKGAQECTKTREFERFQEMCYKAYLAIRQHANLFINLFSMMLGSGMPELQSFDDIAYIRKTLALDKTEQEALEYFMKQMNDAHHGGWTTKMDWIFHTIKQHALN

Assay [2] concerns the target T1, Phosphatidylinositol 4,5-bisphosphate 3-kinase catalytic subunit delta isoform (Homo sapiens, UniProt O00329).
T1 sequence (O00329 whole entry): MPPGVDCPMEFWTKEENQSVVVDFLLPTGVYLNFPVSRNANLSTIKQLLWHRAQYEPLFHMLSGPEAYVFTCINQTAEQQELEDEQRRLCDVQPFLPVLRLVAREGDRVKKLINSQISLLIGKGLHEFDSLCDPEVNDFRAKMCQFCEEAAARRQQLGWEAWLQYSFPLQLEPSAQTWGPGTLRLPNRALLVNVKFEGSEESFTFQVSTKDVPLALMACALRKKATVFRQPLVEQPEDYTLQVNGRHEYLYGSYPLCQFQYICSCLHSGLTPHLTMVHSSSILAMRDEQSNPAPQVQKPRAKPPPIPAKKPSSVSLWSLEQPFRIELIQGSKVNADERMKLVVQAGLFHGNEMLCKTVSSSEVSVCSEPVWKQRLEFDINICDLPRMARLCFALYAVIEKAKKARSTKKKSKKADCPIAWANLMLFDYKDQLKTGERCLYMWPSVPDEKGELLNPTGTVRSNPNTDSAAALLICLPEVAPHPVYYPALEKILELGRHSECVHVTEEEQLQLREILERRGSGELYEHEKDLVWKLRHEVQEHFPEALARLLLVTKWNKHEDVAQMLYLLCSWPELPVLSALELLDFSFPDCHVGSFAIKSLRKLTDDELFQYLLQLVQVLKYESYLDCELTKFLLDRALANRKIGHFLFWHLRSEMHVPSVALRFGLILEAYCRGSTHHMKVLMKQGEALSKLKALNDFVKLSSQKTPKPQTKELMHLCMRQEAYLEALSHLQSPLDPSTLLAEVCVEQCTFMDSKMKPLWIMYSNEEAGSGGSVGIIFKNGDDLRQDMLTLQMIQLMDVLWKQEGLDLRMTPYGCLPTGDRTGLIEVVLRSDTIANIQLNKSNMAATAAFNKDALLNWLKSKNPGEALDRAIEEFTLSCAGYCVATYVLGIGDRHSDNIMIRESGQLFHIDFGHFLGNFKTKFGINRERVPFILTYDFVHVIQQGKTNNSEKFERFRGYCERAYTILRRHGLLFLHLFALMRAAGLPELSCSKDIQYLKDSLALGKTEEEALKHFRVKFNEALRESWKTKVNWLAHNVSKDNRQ
The assay is described as §1.

The term IC50 denotes the concentration that gives 50% inhibition. A low value points to inhibition by little substance.

Values joined by “and” are separate entries in the source; they are usually repeats but may differ in a detail not shown here. Identical values can stand only once.

In the case of `COc1ncc(N2CCOc3ccc(O[C@H]4CCN(C(=O)c5cn(C)cn5)C4)cc32)cc1F`, the values for the half-inhibitory concentration (IC50) in assay [1] and in assay [2] were 0.209 µM and 0.0102 µM, respectively.
For the compound `CC(C)S(=O)(=O)c1cncc(N2CCOc3ccc(O[C@H]4CCN(C(=O)C5CCOCC5)C4)cc32)c1`, the 50% inhibitory concentration (IC50) in assay [1] worked out at 2.24 µM; in assay [2], 0.11 µM.
For the compound `O=C(C1CCOCC1)N1CC[C@H](Oc2ccc3c(c2)N(c2cncc(S(=O)(=O)N4CCOCC4)c2)CCO3)C1`, the figures for the IC50 in assay [1] and in assay [2] were 0.313 µM and 0.003 µM, respectively.
The matching figures for `O=C(C1CCOCC1)N1CC[C@H](Oc2ccc3c(c2)N(c2cncc(C(F)(F)F)c2)CCO3)C1`: 0.377 µM and 0.009 µM.
The matching figures for `Cc1cc(N2CCOc3ccc(O[C@H]4CCN(C(=O)c5cn(C)cn5)C4)cc32)cnc1Cl`: 0.193 µM and 0.032 µM.
The matching figures for `Cc1ccc(N2CCOc3ccc(O[C@H]4CCN(C(=O)C5CCOCC5)C4)cc32)cn1`: 4.66 µM and 0.037 µM.
Regarding `COc1cc(N2CCOc3ccc(O[C@H]4CCN(C(=O)c5cn(C)cn5)C4)cc32)cnc1Cl`, the 50% inhibitory concentration (IC50) in assay [1] was found to be 0.496 µM; in assay [2], 0.041 µM.
The like results for `COc1cc(N2CCOc3ccc(O[C@H]4CCN(C(=O)C5CCC(F)(F)CC5)C4)cc32)cnc1S(C)(=O)=O` were, in that order, 0.87 µM and 0.035 µM.
For the compound `COc1ncc(N2CCOc3ccc(O[C@H]4CCN(C(=O)C(C)C)C4)cc32)cc1C#N`, the results for the IC50 in assay [1] and in assay [2] were 0.463 µM and 0.011 µM, respectively.
With `COc1cc(N2CCOc3ccc(O[C@H]4CCN(C(=O)C5CCCO5)C4)cc32)cnc1OC` (single isomer, unassigned), the IC50 in assay [1] is 0.703 µM and 0.521 µM; in assay [2], 0.005 µM and 0.007 µM.
With `Cc1cc(N2CCOc3cnc(O[C@H]4CCN(C(=O)C5CCS(=O)(=O)CC5)C4)cc32)cnc1OC(F)F`, the IC50 was 0.87 µM in assay [1] and 0.01 µM in assay [2].
The matching figures for `Cc1cc(N2CCOc3ccc(O[C@H]4CCN(C(=O)c5ccc(=O)[nH]c5)C4)cc32)cnc1Cl`: 0.795 µM and 0.035 µM.
